# Assays:
# [1] = molecular target: T1, ATP-dependent translocase ABCB1 (Homo sapiens, UniProt P08183); assay: TP_TRANSPORTER: transepithelial transport (basal to apical) in Caco-2 cells; assay type: functional, cell-based
# [2] = molecular target: T1, ATP-dependent translocase ABCB1; assay: TP_TRANSPORTER: inhibition of Rhodamine 123 efflux (R123: 1.5 ug/mL, Carbamazepine: 100 uM) in human lymphocytes; assay type: functional, cell-based; conditions: lymphocyte
# [3] = molecular target: P-glycoprotein 1 and 3 (MDR1a/MDR1b) (Mus musculus, UniProt P21447+P06795); assay: TP_TRANSPORTER: no change in brain concentration in mdr1a/1b(-/-) mouse; assay type: functional, organism-based; conditions: in vivo
# T1 sequence (P08183 whole entry): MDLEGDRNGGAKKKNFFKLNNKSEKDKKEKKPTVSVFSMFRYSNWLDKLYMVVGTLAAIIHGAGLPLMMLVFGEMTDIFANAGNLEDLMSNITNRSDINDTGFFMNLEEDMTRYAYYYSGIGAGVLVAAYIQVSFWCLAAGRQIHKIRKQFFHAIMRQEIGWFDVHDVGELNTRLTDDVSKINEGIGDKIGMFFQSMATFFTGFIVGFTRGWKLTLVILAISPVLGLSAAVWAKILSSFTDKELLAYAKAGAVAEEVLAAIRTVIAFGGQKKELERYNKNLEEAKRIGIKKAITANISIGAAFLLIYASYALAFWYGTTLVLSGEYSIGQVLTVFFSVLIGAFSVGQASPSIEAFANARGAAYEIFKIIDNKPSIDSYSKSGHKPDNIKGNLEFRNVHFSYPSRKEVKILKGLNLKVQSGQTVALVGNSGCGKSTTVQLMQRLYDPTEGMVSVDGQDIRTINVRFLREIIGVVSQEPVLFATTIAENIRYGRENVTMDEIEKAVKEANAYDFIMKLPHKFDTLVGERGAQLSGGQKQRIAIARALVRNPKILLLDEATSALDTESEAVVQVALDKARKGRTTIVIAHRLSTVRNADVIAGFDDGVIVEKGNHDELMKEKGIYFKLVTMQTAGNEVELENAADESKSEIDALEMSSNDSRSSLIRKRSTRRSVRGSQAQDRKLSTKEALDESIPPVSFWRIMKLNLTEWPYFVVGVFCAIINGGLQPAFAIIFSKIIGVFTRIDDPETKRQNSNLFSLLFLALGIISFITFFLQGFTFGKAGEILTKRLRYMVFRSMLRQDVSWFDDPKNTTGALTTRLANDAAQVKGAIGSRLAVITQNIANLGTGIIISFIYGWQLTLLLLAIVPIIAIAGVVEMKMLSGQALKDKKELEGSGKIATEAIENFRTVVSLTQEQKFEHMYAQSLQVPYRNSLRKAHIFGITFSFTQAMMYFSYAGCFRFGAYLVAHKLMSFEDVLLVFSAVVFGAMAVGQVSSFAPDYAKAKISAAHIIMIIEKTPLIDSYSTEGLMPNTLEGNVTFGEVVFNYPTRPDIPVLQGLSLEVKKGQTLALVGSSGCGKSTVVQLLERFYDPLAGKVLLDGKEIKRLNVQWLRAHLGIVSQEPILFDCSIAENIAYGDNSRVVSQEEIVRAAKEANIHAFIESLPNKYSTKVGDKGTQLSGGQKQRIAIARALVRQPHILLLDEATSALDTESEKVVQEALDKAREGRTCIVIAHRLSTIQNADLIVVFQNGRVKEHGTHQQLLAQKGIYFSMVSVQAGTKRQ
structure (smiles),measurement,setting,value
NC(=O)N1c2ccccc2C=Cc2ccccc21 [CARBAMAZEPINE],Activity,[1],is not a substrate [-]
same,Activity,[2],is not an inhibitor [-]
same,Activity,[3],is not a substrate [-]

# Reference: ChEMBL document CHEMBL2074550, “Carbamazepine is not a substrate for P-glycoprotein” (Br J Clin Pharmacol, 2001)
